Here are results for eleven molecules from patent publication US4384118A, “4-(3-Iodopropargyloxy) pyrimidine derivatives” (SPOFA, spojene podniky pro zdravotnickou vyrobu, priority 1980, dated 1983).

Each structure is given as a SMILES string. Values after ≈ are worked out from the molar mass of the structure shown. Read-outs that look alike come from different tables or passages of the source.

What all share (format): cell-based
Assay [1] deals with Trichophyton Mentagrophytes. Put plainly: Minimum inhibitory concentration vs Trichophyton Mentagrophytes. As to conditions: for activity against Trichophyton mentagrophytes compared with known antimycotic agents: comparison with best antimycotic agents previously known; for activity against Trichophyton mentagrophytes (in words): same range as the minimum inhibitory concentrations in Aspergillus niger, 0.3 to 0.7 μg/ml; for MIC: Table A, TM = Trichophyton Mentagrophytes, read-out: Minimum Inhibitory Concentrations. From the text: (§1) For comparative purposes, three of the compounds of formula (1) were compared with Clotrimazole and Haloprogine, well known prior art antimycotic compounds. Comparisons of minimum inhibitory concentration in μg/ml. were made with respect to four strains of […].

The next assay relates to Microsporum gypseum. Put plainly: Minimum inhibitory concentration vs Microsporum gypseum. The conditions noted are these: Nannizzia gypsea, Table B. How it is done:
(§2) Additionally, certain compounds of the invention were evaluated with respect to other mold species. Thus, for example, 2-ethylthio-4-(3 iodopropargyloxy) pyrimidine was evaluated with respect to the species identified in Table B, below and the noted minimum inhibitory cencentrations determined: […]

The next assay relates to Microsporum Canis. Put plainly: Minimum inhibitory concentration vs Microsporum Canis. As to conditions: Table B. How it is done:
as §2

Another assay has as its system Epidermophyton floccosum. Kind of assay: Minimum inhibitory concentration vs Epidermophyton floccosum. As to conditions: Table B. How it is done:
as §2

The next assay has as its system Trichophyton verrucosum. Put plainly: Minimum inhibitory concentration vs Trichophyton verrucosum. The conditions noted are these: Table B. The protocol: as §2
The test system of a further assay is Keratinomyces ajelloi. Put plainly: Minimum inhibitory concentration vs Keratinomyces ajelloi. As to conditions: Table B. The protocol: as §2
The test system of a further assay is Trichophyton rubrum. Put plainly: Minimum inhibitory concentration vs Trichophyton rubrum. The conditions noted are these: Table B. The protocol:
as §2

For the next assay, the system named is Sporotrichum cejpii. Kind of assay: Minimum inhibitory concentration vs Sporotrichum cejpii. As to conditions: Table B. How it is done:
as §2

Assay [2] has as its system Trichophyton schoenleinii. Put plainly: Minimum inhibitory concentration vs Trichophyton schoenleinii. As to conditions: Table B. The protocol: as §2
A further assay deals with Aspergillus Niger. Put plainly: Minimum inhibitory concentration vs Aspergillus Niger.
Excerpt: as §1

A further assay deals with Sacharomyces Pastorianus. Put plainly: Minimum inhibitory concentration vs Sacharomyces Pastorianus. The conditions noted are these: Table A, SP = Sacharomyces Pastorianus; read-out: Minimum Inhibitory Concentrations.
Excerpt: as §1

The next assay relates to Candida Alicans. Put plainly: Minimum inhibitory concentration vs Candida Alicans. As to conditions: Table A, CA = Candida Alicans; read-out: Minimum Inhibitory Concentrations.
Excerpt: as §1

Setting [3] is: Aspergillus niger, read-out: minimum inhibitory concentration.
Setting [4] is: Table A, AN = Aspergillus Niger, read-out: Minimum Inhibitory Concentrations.

With `COc1cnc(N)nc1OCC#CI` [2-amino-5-methoxy-4-(3-iodopropargyloxy) pyrimidine], in assay [1], the “activity against Trichophyton mentagrophytes compared with known antimycotic agents” value is “comparable with that of the best antimycotic agents previously known” and the “activity against Trichophyton mentagrophytes (in words)” value (from here on “activity … (in words)”) is given as “lies in the same range”.

Consider `CCSc1nccc(OCC#CI)n1` [2-ethylthio-4-(3 iodopropargyloxy) pyrimidine], for which the MIC in the assay with Microsporum gypseum came to 0.3 µg/mL (≈ 0.937 µM); in the assay on Microsporum Canis, 0.15 µg/mL (≈ 0.469 µM); against Epidermophyton floccosum, 0.3 µg/mL (≈ 0.937 µM); against Trichophyton verrucosum, 0.15 µg/mL (≈ 0.469 µM); in the assay on Keratinomyces ajelloi, 0.3 µg/mL (≈ 0.937 µM); against Trichophyton rubrum it was 0.07 µg/mL (≈ 0.219 µM). Moreover, the figures for the MIC (against Sporotrichum cejpii; in assay [2]) were 0.3 µg/mL (≈ 0.937 µM) and 0.03 µg/mL (≈ 0.0937 µM), respectively.

As for `CCSc1ncc(OC)c(OCC#CI)n1` [2-ethylthio-5-methoxy-4-(3-iodopropargyloxy) pyrimidine], the MIC with Aspergillus Niger (setting [3]) is 0.03 µg/mL (≈ 0.0857 µM).

Consider `CSc1nccc(OCC#CI)n1` [2-methylthio-4-(3-iodopropargyloxy) pyrimidine], for which, in assay [1], the “activity against Trichophyton mentagrophytes compared with known antimycotic agents” value is reported as “comparable with that of the best antimycotic agents previously known” and the “activity … (in words)” value is “lies in the same range”.

`CSc1ncc(Br)c(OCC#CI)n1` [2-methylthio-5-bromo-4-(3-iodopropargyloxy) pyrimidine]: in the assay with Aspergillus Niger (setting [3]), the MIC amounted to 0.01 µg/mL (≈ 0.026 µM).

For `CCOc1cnc(SC)nc1OCC#CI` [2-methylthio-5-ethoxy-4-(3-iodopropargyloxy) pyrimidine], in the assay on Aspergillus Niger (setting [3]), the MIC was 0.07 µg/mL (≈ 0.2 µM).

In the case of `COc1cnc(SC)nc1OCC#CI` [2-methylthio-5-methoxy-4-(3-iodopropargyloxy) pyrimidine], in assay [1], the “activity against Trichophyton mentagrophytes compared with known antimycotic agents” value was “comparable with that of the best antimycotic agents previously known” and the “activity … (in words)” value is “lies in the same range”.

Turning to `Clc1ccccc1C(c1ccccc1)(c1ccccc1)n1ccnc1` [Clotrimazole, reference compound], the MIC in the assay on Sacharomyces Pastorianus amounted to 3.1 µg/mL (≈ 8.99 µM); in assay [1], 0.03 µg/mL (≈ 0.087 µM); with Candida Alicans it was 0.3 µg/mL (≈ 0.87 µM); with Aspergillus Niger (setting [4]) it was 3.1 µg/mL (≈ 8.99 µM).

With `CCCSc1ncc(OC)c(OCC#CI)n1` [Compound I, 2 propylthio5-methoxy-4-(3 iodoprogargyloxy) pyrimidine], the MIC with Sacharomyces Pastorianus was 0.3 µg/mL (≈ 0.824 µM); in assay [1], 0.07 µg/mL (≈ 0.192 µM); with Candida Alicans, 3.1 µg/mL (≈ 8.51 µM); in the assay with Aspergillus Niger (setting [4]), 0.01 µg/mL (≈ 0.0275 µM).

Consider `C=CCSc1nccc(OCC#CI)n1` [Compound II, 2allylthio-4-(3-iodopropargyloxy) pyrimidine], for which the MIC came to 0.15 µg/mL (≈ 0.452 µM) in the assay on Sacharomyces Pastorianus, 0.07 µg/mL (≈ 0.211 µM) in assay [1], 0.7 µg/mL (≈ 2.11 µM) in the assay with Candida Alicans and 0.3 µg/mL (≈ 0.903 µM) with Aspergillus Niger (setting [4]).

As for `Clc1cc(Cl)c(OCC#CI)cc1Cl` [Haloprogine, reference compound], the figures for the MIC (in [1]; in the assay on Candida Alicans) were 0.6 µg/mL (≈ 1.66 µM) and 1.2 µg/mL (≈ 3.32 µM), respectively.
